Measured values reported in patent US12600732B2, “Bifunctional compounds for degrading BTK via ubiquitin proteosome pathway” (NURIX THERAPEUTICS, INC., priority 2019, dated 2026).
Each block holds one compound with its values, some of them ahead of it.

Target: T1, BTK (Mus musculus, UniProt P35991)
T1 construct: from tissue; host or cells: mouse blood B cells / splenocytes (CD-1 or BALB/c)
Assay: In vivo degradation of BTK in mouse PD experiments with oral dosing
Description: A method of determining the pharmacodynamic profile of BTK degraders was performed by dosing either CD-1 or BALB/c mice with CTM. The CTM was prepared in a suitable formulation and was administered via oral gavage (PO) at a suitable dose level and frequency as informed by prior pharmacokinetic and tolerability studies. Following administration of CTM, BTK levels in blood or splenocytes are measured using flow cytometry or HTRF. For assessment of BTK levels via flow cytometry, either whole blood or splenocytes were first treated with ACK RBC lysis buffer to facilitate lysing of red blood cells. Remaining cells were then stained with fluorophore-conjugated antibodies against CD45, TCR beta and CD45R (B220). Cell pellets were washed with 1×PBS, fixed, and permeabilized for twenty-four hours with Foxp3/Transcription Factor Fixation/Permeabilization Kit. Cells were then stained intracellularly with unconjugated BTK antibody and detected with a fluorophore-conjugated secondary antibody. Stained cells were run on an Attune N×T Acoustic Focusing Flow Cytometer (Thermo-Fisher A29004), and data was analyzed using FlowJo (v10.5.3) and GraphPad Prism (v7.00) software. Lymphocytes were gated for B cells defined as CD45+ TCR beta−B220+ and T cells as CD45+ TCR beta+B220−. The BTK geometric mean fluorescence intensity (MFI) was calculated for B and T cells. Percent BTK degradation for each compound-treated sample was calculated using the equation described below: % Degradation=100*(Treated sample B cell BTK MFI-treated sample T cell BTK MFI)/Vehicle B cell BTK MFI-Vehicle T cell BTK MFI)
This example evaluates in vivo activity of BTK CTMs via a direct mouse PD measurement following oral dosing
Screens were completed at 90 mg/kg for six hours, and then changed to lower doses/longer time points after seeing strong BTK degradation activity with an initial set of compounds. This assay was useful in selecting compounds for in vivo efficacy experiments.

[1] = oral dose 30 mg/kg, 24 h, blood, flow cytometry
[2] = oral dose 1 mg/kg, 6 h, splenocytes, HTRF
[3] = oral dose 90 mg/kg, 6 h, splenocytes, HTRF
[4] = oral dose 30 mg/kg, 24 h, splenocytes, HTRF

T1 sequence (P35991 whole entry): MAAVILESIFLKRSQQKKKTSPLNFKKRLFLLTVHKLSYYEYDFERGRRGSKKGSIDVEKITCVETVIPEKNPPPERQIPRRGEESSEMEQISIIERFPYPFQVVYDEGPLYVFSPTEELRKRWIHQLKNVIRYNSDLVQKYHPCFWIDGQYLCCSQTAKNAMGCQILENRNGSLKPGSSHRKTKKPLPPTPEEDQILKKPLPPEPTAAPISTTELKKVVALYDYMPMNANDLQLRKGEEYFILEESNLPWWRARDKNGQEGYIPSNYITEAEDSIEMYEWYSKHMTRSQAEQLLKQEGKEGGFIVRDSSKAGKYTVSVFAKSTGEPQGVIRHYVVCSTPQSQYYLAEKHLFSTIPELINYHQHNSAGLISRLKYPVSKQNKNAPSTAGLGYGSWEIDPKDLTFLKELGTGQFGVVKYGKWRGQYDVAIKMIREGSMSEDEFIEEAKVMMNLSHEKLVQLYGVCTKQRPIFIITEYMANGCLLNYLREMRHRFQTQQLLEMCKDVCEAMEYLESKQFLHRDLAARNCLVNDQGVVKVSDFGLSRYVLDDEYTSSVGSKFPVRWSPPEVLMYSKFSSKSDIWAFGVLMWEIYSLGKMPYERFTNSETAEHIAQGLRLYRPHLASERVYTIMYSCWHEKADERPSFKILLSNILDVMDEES

Structure (SMILES): CN1CCN([C@@H]2CCCN(c3cnc(C(N)=O)c(Nc4ccc(C5CCN(CC6CCN(c7ccc(OC8CCC(=O)NC8=O)cn7)CC6)CC5)cc4)n3)C2)C1=O (stereo partly shown) [Compound 165]
- % BTK Remaining [4]: 29%

Structure (SMILES): CS(=O)(=O)c1ccc(Nc2nc(N3CCC[C@@H](NC(=O)OCC4CCN(c5ccc6c(c5)C(=O)N([C@H]5CCC(=O)NC5=O)C6=O)CC4)C3)cnc2C(N)=O)cc1 [Compound 218]
- % BTK Remaining [2]: 97%

Structure (SMILES): Cn1cc(Nc2nc(N3CCC[C@@H](N4CC5(CN(CC6CN(c7ccc8c(c7)C(=O)N(C7CCC(=O)NC7=O)C8=O)C6)C5)OC4=O)C3)cnc2C(N)=O)cn1 (stereo partly drawn) [compound 213, 5-((3R)-3-(2-((1-(2-(2,6-dioxopiperidin-3-yl)-1,3-dioxoisoindolin-5-yl)azetidin-3-yl)methyl)-6-oxo-5-oxa-2,7-diazaspiro[3.4]octan-7-yl)piperidin-1-yl)-3-((1-methyl-1H-pyrazol-4-yl)amino)pyrazine-2-carboxamide]
- % BTK Remaining (oral dose 3 mg/kg, 6 h, blood, flow cytometry): 97%

Structure (SMILES): CN1CCN([C@@H]2CCCN(c3cnc(C(N)=O)c(Nc4ccc(C5CN(CC6CCN(c7cnn(C8CCC(=O)NC8=O)c(=O)c7)CC6)C5)cc4)n3)C2)C1=O (stereo partly shown) [Compound 118]
- % BTK Remaining [4]: 85%

Structure (SMILES): CN1CCN([C@@H]2CCCN(c3cnc(C(N)=O)c(Nc4ccc(C5CCN(C[C@H]6C[C@H](Nc7cccc8c7C(=O)N([C@@H]7CCC(=O)NC7=O)C8=O)C6)CC5)cc4)n3)C2)C1=O [Compound 202]
- % BTK Remaining [1]: 79%

Structure (SMILES): CN1CCN([C@@H]2CCCN(c3cnc(C(N)=O)c(Nc4ccc(C5CCN(CCC6CCN(c7ccc8c(c7)C(=O)N(C7CCC(=O)NC7=O)C8=O)CC6)CC5)cc4)n3)C2)C1=O (stereo partly shown) [Compound 41]
- % BTK Remaining [3]: 15%

Structure (SMILES): NC(=O)c1ncc(N2CCCCC2)nc1Nc1ccc(C2CCN(CC3CCN(c4ccc(OC5CCC(=O)NC5=O)cn4)CC3)CC2)cc1 (stereo not shown) [Compound 164]
- % BTK Remaining [4]: 29%

Structure (SMILES): CN1CCN([C@@H]2CCCN(c3cnc(C(N)=O)c(Nc4ccc(C5CN(C[C@H]6CCN(c7ccc8c(c7)C(=O)N(C7CCC(=O)NC7=O)C8=O)C6)C5)cc4)n3)C2)C1=O (stereo partly shown) [Compound 35]
- % BTK Remaining [2]: 74%

Structure (SMILES): CN1CCN([C@@H]2CCCN(c3cnc(C(N)=O)c(Nc4ccc(C5CCN(C[C@@H]6CCCN(c7ccc8c(c7)C(=O)N(C7CCC(=O)NC7=O)C8=O)C6)CC5)cc4)n3)C2)C1=O (stereo partly drawn) [Compound 32, 3-((4-(1-(((3S)-1-(2-(2,6-dioxopiperidin-3-yl)-1,3-dioxoisoindolin-5-yl)piperidin-3-yl)methyl)piperidin-4-yl)phenyl)amino)-5-((R)-3-(3-methyl-2-oxoimidazolidin-1-yl)piperidin-1-yl)pyrazine-2-carboxamide]
- % BTK Remaining [2]: 93%

Results, then the compound that gave them:

- % BTK Remaining [1]: 95%
Structure (SMILES): O=C1CC[C@H](N2C(=O)c3ccc(N4CC[C@H](CN5CCC(c6ccc(Nc7nc(-c8nccs8)cn8ccnc78)cc6)CC5)C4)cc3C2=O)C(=O)N1 [Compound 203]

- % BTK Remaining [2]: 102%
Structure (SMILES): CN1CCN([C@H]2CCCN(c3cnc(C(N)=O)c(Nc4ccc(N5CC6CN(c7ccc8c(c7)C(=O)N(C7CCC(=O)NC7=O)C8=O)CC6C5)cc4)n3)C2)C1=O (stereo partly shown) [Compound 79]

- % BTK Remaining [3]: 14%
Structure (SMILES): CN1CCN([C@@H]2CCCN(c3cnc(C(N)=O)c(Nc4ccc(N5CCN(C[C@@H]6CCCN(c7ccc8c(c7)C(=O)N(C7CCC(=O)NC7=O)C8=O)C6)CC5)cc4)n3)C2)C1=O (stereo partly shown) [Compound 46]

- % BTK Remaining [1]: 29%
Structure (SMILES): NC(=O)c1ncc(N2CCC[C@H](N3CCCC3=O)C2)nc1Nc1ccc(C2CCN(CC3CCN(c4ccc5c(=O)n(C6CCC(=O)NC6=O)ccc5c4)CC3)CC2)cc1 (stereo partly shown) [Compound 144]

- % BTK Remaining [4]: 59%
Structure (SMILES): CN1CCN([C@@H]2CCCN(c3cnc(C(N)=O)c(Nc4ccc(C5CCN(CC6CCN(c7cnn(C8CCC(=O)NC8=O)c(=O)c7)CC6)CC5)cc4)n3)C2)C1=O (stereo partly shown) [Compound 120]

- % BTK Remaining [1]: 49%
Structure (SMILES): CN1CCN([C@@H]2CCCN(c3cnc(C(N)=O)c(Nc4ccc(C5CCN(C[C@H]6CCN(c7ccc8c(c7)CN(C7CCC(=O)NC7=O)C8=O)C6)CC5)cc4)n3)C2)C1=O (stereo partly shown) [Compound 117]

- % BTK Remaining [1]: 33%
Structure (SMILES): Cn1c(=O)n([C@@H]2CCC(=O)NC2=O)c2ccc(N3CC[C@H](CN4CCC(c5ccc(Nc6nc(N7CCCCC7)cnc6C(N)=O)cc5)CC4)C3)cc21 [Compound 196]
